Measured values as given in US9011853B2, “B7-H4 fusion proteins and methods of use thereof” (Amplimmune, Inc., priority 2009, dated 2015).

Tested on: serum levels of 58 analytes
Assay: Serum biomarker analysis, quantitative immunoassay multi-analyte profiling (Rules-Based Medicine RodentMAP v2.9), AA#80
Type: in vivo, mouse
Procedure: In AA#80, serum samples were collected on Day 27, Day 34, Day 41 and Day 55 via the submandibular vein. Approximately 200 μL of blood per mouse was collected in Microtainer® serum separator tubes. Serum was removed following centrifugation and stored at <−65° C. until analysis.
Selected serum samples were sent to Rules-Based Medicine (Austin, Tex.) for quantitative immunoassay multi-analyte profiling of serum samples, with the goal of identifying biomarkers that could be used to monitor disease progression and response to B7-H4-Ig treatment. Day 27, Day 34, and Day 41 sera from the three representative mice in the B7-H4-Ig group (tag #3332, 3334, and 3338) and three representative mice in the Synagis® group (tag #3324, 3329, and 3330) were analyzed for levels of 58 analytes using the RodentMAP v2.9 Testing Service.
Data from the Rules-Based Medicine analysis was analyzed using Microsoft Excel and GraphPad Prism software. T-tests were performed to compare the levels of each analyte in the B7-H4-Ig versus Synagis® treated samples. No correction was made for multiple comparisons. Additionally, correlation coefficients were calculated for each analyte versus disease score.

Substance: B7-H4-Ig: B7-H4 extracellular domain fused to Ig Fc; bare label is the human protein in Example 3, murine protein in Examples 1, 2, 5, 7-11
- serum IL-6 levels, difference between Synagis and B7-H4-Ig groups (AA#80 serum (FIG. 11)): did not reach statistical significance
- serum SAP levels (B7-H4-Ig vs Synagis treated groups): not significantly different
- serum MIP-2 levels (Day 41, vs Synagis treated mice (FIG. 15)): significantly lower
- serum ET-1 levels (Day 41 and overall, vs Synagis treated mice (FIG. 10)): significantly lower
- serum MCP-1 levels (Day 41 and overall, vs Synagis treated mice (FIG. 12)): significantly lower
- serum MCP-3 levels (Day 41 and overall, vs Synagis treated mice (FIG. 14)): significantly lower
- serum samples with TNF-α levels above the limit of detection (all samples (Day 27, 34, 41) (FIG. 16)): none
